Laboratory results from ChEMBL document CHEMBL1681705, “Optimisation of ITK inhibitors through successive iterative design cycles” (Bioorg Med Chem Lett, 2011).

Experiments:
[1] = molecular target: T1, Tyrosine-protein kinase ZAP-70 (Homo sapiens) (UniProt P43403); experiment: Inhibition of ZAP70 at 1 uM; values are per cent of control
T1 sequence (whole entry): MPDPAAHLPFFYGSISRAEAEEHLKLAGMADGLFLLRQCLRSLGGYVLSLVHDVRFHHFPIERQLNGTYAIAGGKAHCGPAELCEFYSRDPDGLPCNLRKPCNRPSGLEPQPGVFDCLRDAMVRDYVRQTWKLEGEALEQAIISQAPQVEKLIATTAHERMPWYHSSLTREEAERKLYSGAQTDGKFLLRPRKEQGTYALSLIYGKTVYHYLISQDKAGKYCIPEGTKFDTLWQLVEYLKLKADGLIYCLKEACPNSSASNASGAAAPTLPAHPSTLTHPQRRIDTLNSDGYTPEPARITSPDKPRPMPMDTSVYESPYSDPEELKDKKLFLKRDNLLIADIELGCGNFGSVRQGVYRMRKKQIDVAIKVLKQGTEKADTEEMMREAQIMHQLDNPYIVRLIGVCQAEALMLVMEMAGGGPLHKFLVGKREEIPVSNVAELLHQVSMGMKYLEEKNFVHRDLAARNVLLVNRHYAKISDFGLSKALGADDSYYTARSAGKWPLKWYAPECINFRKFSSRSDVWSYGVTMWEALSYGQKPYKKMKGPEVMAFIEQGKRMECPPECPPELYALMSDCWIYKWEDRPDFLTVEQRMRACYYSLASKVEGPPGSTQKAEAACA

[2] = molecular target: T2, Serine/threonine-protein kinase Nek2 (Homo sapiens) (UniProt P51955); experiment: Inhibition of NEK2 at 1 uM; values are per cent of control
T2 sequence (whole entry): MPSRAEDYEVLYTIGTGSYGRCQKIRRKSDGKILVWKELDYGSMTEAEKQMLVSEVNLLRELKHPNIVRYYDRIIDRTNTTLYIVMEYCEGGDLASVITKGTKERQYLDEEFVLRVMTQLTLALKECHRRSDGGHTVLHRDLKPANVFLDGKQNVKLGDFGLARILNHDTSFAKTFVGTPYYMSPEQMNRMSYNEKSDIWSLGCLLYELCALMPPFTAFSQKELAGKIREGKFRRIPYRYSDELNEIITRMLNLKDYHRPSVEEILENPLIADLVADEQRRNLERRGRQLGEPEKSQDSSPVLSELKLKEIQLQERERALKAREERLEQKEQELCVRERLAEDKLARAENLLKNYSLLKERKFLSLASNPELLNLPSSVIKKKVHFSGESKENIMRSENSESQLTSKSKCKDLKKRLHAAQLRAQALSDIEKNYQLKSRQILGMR

[3] = molecular target: Serine/threonine-protein kinase PLK3 (Homo sapiens) (UniProt Q9H4B4); experiment: Inhibition of Plk3 at 0.1 uM; values are per cent of control
Serine/threonine-protein kinase PLK3 (Homo sapiens), sequence (Q9H4B4 whole entry, looked up): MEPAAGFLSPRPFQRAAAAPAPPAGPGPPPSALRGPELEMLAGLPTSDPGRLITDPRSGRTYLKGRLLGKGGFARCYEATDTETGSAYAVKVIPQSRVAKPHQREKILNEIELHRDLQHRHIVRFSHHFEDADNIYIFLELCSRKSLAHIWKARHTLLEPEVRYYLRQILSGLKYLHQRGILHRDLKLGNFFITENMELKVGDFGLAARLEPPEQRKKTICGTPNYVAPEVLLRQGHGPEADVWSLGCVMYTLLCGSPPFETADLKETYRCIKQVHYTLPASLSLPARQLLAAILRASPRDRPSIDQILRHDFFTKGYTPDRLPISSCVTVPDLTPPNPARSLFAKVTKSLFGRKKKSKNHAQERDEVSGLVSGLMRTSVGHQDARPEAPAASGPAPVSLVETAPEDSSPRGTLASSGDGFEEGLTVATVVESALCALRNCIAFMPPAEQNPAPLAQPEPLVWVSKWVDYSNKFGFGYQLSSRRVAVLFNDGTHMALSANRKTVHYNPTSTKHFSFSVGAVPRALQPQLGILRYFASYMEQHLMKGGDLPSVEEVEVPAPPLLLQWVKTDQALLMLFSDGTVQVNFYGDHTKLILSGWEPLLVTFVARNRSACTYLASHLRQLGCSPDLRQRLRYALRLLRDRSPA

[4] = molecular target: T3, Serine/threonine-protein kinase Chk1 (Homo sapiens) (UniProt O14757); experiment: Inhibition of CHK1 at 1 uM; values are per cent of control
T3 sequence (whole entry): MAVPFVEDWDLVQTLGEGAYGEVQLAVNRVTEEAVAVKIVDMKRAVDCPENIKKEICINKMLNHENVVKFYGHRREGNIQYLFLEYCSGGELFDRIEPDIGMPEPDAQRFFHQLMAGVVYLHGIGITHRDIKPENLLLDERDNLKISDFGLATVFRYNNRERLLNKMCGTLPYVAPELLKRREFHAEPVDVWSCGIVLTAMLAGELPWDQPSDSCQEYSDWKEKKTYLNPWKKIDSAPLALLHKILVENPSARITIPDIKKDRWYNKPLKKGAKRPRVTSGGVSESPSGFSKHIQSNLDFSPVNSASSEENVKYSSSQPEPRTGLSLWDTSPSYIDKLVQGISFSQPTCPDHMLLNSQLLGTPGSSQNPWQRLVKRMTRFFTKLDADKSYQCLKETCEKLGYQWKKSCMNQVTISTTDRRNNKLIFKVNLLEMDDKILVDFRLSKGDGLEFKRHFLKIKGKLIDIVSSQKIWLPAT

[5] = molecular target: Fibroblast growth factor receptor 1 (Homo sapiens) (UniProt P11362); experiment: Inhibition of FGFR1 at 0.1 uM; values are per cent of control
Fibroblast growth factor receptor 1 (Homo sapiens), sequence (P11362 22-822 limits assumed): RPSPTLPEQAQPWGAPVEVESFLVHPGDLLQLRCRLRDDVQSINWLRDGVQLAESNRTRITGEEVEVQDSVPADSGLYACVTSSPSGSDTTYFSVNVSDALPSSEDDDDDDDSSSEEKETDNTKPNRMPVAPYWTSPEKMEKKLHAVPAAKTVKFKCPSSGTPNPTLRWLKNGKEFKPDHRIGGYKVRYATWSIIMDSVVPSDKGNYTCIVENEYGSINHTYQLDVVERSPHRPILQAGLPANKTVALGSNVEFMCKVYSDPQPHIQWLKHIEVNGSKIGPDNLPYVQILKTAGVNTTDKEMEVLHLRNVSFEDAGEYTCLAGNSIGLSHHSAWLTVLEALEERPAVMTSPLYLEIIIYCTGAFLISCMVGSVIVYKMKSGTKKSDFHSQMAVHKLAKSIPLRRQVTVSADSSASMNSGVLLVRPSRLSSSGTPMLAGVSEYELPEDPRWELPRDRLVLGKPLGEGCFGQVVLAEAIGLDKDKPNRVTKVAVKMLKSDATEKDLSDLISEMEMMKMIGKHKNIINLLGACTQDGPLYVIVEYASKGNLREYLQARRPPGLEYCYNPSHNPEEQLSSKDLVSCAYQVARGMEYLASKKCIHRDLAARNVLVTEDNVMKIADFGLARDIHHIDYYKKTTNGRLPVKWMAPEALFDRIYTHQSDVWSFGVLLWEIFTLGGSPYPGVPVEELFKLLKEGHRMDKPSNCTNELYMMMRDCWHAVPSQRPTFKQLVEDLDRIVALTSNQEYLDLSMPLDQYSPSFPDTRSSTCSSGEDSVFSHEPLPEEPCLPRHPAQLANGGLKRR

[6] = molecular target: Calcium/calmodulin-dependent protein kinase type 1 (Homo sapiens) (UniProt Q14012); experiment: Inhibition of CaMK1 at 1 uM; values are per cent of control
Calcium/calmodulin-dependent protein kinase type 1 (Homo sapiens), sequence (Q14012 whole entry, looked up): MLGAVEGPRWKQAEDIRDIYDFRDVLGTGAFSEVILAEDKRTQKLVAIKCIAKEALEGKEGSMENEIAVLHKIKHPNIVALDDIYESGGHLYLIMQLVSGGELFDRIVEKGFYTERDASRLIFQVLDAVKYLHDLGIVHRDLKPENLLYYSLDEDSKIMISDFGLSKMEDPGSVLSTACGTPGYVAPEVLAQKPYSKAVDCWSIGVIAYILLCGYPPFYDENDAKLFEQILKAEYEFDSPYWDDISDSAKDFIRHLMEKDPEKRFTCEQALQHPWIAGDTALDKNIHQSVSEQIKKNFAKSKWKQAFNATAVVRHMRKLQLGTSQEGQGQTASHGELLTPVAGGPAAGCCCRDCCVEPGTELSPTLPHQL

[7] = molecular target: Serine/threonine-protein kinase PLK3 (Homo sapiens) (UniProt Q9H4B4); experiment: Inhibition of Plk3 at 1 uM; values are per cent of control
[8] = molecular target: T4, Tyrosine-protein kinase ITK/TSK (Homo sapiens) (UniProt Q08881); experiment: Inhibition of Itk at 1 uM; values are per cent of control
T4 sequence (whole entry): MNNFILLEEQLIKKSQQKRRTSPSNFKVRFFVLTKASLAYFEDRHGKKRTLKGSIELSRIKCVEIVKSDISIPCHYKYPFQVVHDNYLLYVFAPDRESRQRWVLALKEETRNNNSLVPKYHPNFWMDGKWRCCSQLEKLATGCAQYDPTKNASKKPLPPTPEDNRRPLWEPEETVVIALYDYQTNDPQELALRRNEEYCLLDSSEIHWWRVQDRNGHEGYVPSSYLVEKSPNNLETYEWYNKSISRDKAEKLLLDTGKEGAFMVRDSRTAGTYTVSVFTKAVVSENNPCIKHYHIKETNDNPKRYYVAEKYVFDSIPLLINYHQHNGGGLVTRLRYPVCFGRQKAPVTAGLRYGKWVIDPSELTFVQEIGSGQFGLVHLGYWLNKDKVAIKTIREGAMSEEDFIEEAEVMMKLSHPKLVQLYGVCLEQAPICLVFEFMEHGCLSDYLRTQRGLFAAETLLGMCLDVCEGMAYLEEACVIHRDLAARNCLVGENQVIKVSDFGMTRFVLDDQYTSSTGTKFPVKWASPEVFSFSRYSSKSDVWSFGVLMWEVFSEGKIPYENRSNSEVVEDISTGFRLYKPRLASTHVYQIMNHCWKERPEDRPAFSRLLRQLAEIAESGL

[9] = molecular target: Interleukin-1 receptor-associated kinase 1 (Homo sapiens) (UniProt P51617); experiment: Inhibition of IRAK1 at 0.1 uM; values are per cent of control
Interleukin-1 receptor-associated kinase 1 (Homo sapiens), sequence (P51617 whole entry, looked up): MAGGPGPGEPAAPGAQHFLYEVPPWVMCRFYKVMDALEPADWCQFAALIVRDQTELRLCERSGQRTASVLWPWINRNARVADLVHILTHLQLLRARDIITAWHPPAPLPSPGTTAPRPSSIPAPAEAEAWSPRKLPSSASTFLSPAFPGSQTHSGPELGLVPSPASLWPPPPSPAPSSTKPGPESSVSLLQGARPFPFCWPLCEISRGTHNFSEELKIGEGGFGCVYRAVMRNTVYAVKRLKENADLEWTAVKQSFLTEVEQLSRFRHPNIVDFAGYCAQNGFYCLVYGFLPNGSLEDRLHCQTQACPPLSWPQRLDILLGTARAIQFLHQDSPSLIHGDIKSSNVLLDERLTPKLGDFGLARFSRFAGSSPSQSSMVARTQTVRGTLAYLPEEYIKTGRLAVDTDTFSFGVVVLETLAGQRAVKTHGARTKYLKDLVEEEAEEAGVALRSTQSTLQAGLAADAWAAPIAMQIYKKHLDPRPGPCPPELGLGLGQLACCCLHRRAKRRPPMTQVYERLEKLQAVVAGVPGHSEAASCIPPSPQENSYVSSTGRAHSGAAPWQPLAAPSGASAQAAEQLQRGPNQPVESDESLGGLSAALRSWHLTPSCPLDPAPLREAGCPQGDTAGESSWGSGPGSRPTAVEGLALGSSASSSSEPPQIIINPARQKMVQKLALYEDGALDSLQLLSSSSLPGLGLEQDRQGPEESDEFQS

residual activity [1] | residual activity [2] | residual activity [3] | residual activity [4] | residual activity [5] | residual activity [6] | residual activity [7] | residual activity [8] | residual activity [9] | SMILES
35% | 36% | 106% | 6% | 0% | 24% | 100% | 2% | 56% | Cc1ccc2cc(-c3n[nH]c4ccc(NC5CCNC5)cc34)[nH]c2c1 (stereo not drawn)
75% | 68% | 103% | 40% | 2% | 78% | 117% | 7% | 47% | Cc1ccc2cc(-c3n[nH]c4ccc(NC5CCN(Cc6ccccc6)CC5)cc34)[nH]c2c1
